# From publication PMC7472518, “Ultrasensitive Detection of Enzymatic Activity Using Single Molecule Arrays” (Journal of the American Chemical Society, 2020)
# pIC50: −log10 of the molar value. Structures can show the parent of a compound that is named as a salt.
# Columns and labels:
# [1] = tested on: Bcr-Abl; conditions: read-out: IC50 (reported); cited from earlier work
# [2] = biological target: T1, Src (Homo sapiens, UniProt P12931); assay: eSimoa ATP titration for Km, Src; type: biochemical; conditions: calculated from the EC50 of the ATP response curve
# T1 construct: purchased Millipore (Burlington, MA) 14-326
# Text: (§1) We first determined the Km values for Src and Abl. Different concentrations of ATP were used in the phosphorylation reaction, while the concentrations of peptide-modified beads and enzymes were kept constant.
# [3] = biological target: T2, Abl (Homo sapiens, UniProt P00519); assay: eSimoa ATP titration for Km, Abl; type: biochemical; conditions: calculated from the EC50 of the ATP response curve
# T2 construct: purchased Millipore (Burlington, MA) 14-529
# T2 sequence (P00519 whole entry): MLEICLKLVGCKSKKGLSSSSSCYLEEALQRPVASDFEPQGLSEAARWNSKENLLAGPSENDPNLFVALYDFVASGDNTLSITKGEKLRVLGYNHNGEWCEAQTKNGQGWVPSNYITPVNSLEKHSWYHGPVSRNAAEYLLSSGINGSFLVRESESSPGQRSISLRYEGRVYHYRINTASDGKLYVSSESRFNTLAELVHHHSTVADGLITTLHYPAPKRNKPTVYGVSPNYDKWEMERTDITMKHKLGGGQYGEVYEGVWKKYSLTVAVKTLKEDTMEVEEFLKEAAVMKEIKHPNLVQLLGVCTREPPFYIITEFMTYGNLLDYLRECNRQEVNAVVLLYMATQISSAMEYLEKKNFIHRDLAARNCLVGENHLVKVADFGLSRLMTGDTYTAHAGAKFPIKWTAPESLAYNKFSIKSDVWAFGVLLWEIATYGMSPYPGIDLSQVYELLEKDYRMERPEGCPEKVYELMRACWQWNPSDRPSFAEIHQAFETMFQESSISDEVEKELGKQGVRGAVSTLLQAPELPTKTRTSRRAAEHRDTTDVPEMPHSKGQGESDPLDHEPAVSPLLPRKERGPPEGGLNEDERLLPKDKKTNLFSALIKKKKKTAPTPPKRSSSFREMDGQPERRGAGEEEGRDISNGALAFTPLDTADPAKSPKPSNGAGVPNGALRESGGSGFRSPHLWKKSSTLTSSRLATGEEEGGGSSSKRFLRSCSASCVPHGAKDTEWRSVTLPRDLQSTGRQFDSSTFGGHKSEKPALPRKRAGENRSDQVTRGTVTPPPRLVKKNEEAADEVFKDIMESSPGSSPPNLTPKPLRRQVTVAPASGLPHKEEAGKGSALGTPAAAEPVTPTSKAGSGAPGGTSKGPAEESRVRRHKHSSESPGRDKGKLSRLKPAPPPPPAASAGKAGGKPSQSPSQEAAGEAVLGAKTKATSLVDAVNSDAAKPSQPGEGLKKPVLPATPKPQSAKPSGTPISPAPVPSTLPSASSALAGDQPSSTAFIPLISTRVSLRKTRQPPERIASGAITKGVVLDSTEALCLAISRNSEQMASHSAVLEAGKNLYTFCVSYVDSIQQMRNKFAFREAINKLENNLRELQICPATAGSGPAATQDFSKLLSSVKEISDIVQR
# Text: as §1
structure (smiles),measurement,setting,value
"Nc1ncnc2c1ncn2[C@@H]1O[C@H](COP(=O)(O)OP(=O)(O)OP(=O)(O)O)[C@@H](O)[C@H]1O [ATP, adenosine 5′-triphosphate (ATP) disodium salt hydrate]",Km,[2],29.2 µM
same,Km,[3],3.69 µM
